Reference: patent US7968558B2, “Amidine derivatives of 2-heteroaryl-quinazolines and quinolines; potent analgesics and anti-inflammatory agents” (Rottapharm S.p.A., priority 2006, dated 2011)

What was measured:
[1] = test system: IL-1β induced PGE2 production; experiment: PGE2 production induced by IL-1β in chondrocyte cell culture; format: cell-based, rabbit; conditions: Oryctolagus cuniculus, Chondrocyte, read-out: Effects on PGE2 production in rabbit Chondrocyte culture, IC50
Excerpt: (§1) Conversely, compounds of the invention are able to inhibit, at micromolar concentration, IL-1β induced PGE2 production in cellular systems. This inhibition effect on the production of the pro-inflammatory mediator PGE2, instead of to be ascribed to a direct COX-2 inhibition, as happens with Celecoxib and other COX-2 inhibitors, is in this case due to inhibition of cytokine induced COX-2 expression as proven in cellular systems.
(§2) Effectiveness in inhibition of PGE2 production induced by IL-1β in chondrocyte cell culture, as well as inhibition in IL-1β induced COX-2 expression in SW1353 human chondrosarcoma cell line, is summarized in Table 2, for representative compounds of the invention.

COX-2 expression = experiment: IL-1β induced COX-2 expression in SW1353 human chondrosarcoma cell line; format: cell-based; conditions: Homo sapiens, SW1353, read-out: Inhibition of COX-2 expression in SW1353 human chondrosarcoma cell line, IC50
Excerpt: as §1, §2

IL-1 production = IL-1 production in IL-1 stimulated human chondrosarcoma cell line; format: cell-based; conditions: Compound concentration is 10 μM
Excerpt: The compounds of the invention have been found effective in interfering with cytokine production in several cell lines, representative examples of this effect are reported in Table 3, for two representative cytokines, in IL-1 stimulated human chondrosarcoma cell line.

[2] = test system: Zymosan induced paw volume increase; experiment: Zymosan-induced paw oedema; format: in vivo, rat; conditions: oral
Experimental: The interplantar injection of Zymosan-induced mechanical hyperalgesia was used as a model of inflammatory pain (Meller, Neuropharmacology, 1994, 33, 1471-1478). In this model, typically a male Sprague-Dawley or Wistar rat (200-250 g) receives an interplantar injection of 3 mg/100 μl zymosan into one hind paw. A marked inflammation occurs in this hind paw. Drugs are administered orally for evaluation of efficacy, 30 min. before the inflammatory insult. The hyperalgesia induced by zymosan administration was evaluated using the Randall-Selitto method (Arch. Int. Pharmacodyn., 1957, 111, 409). The quantitation of the analgesic effect is achieved by an analgesimeter, which consist in applying to the inflamed paw an increasing weight (from 130-140 g up to 500 g). The difference in the mechanical pain threshold between the basal value (generally 230-250 g) and the one tolerated by the animals treated with the drug, determined 4 hours after the inflammatory challenge, is defined as mechanical hyperalgesia.
Mechanical hyperalgesia is expressed for the compounds of the invention as ED50, which is the dose of the administered compound able to increase the pain threshold by 50% in comparison with the group of control animals. The corresponding ED100, representing the dose able of reducing of 100% the pain threshold, can be calculated for those cases where there is a linear dose-response relationship. In vivo anti-inflammatory effect exerted by the compound of the invention can be assessed in the same Zymosan induced inflammation test described above, by measuring the volume of the oedema induced by the inflammatory agent. The oedema was evaluated as the increase in the volume of the Zymosan injected paw within a time of 0-2 hrs. The measurements of the variation of the oedema volume of the paw were recorded using hydroplethysmometer, which consists of two plastic cuvettes containing a surfactant liquid, the larger one being used for immersion of the paw, connected to the smaller one which contains a trans-ducer capable of recording small displacements of the volume used for the measure. The paw is immersed in the cuvettes up to the tibiotarsal joint. The volume of the liquid displaced is proportional to the extent of the inflammation. The efficacy of the compounds of the invention in preventing oedema formation is expressed as ED30, and is measured 2 hours after the inflammatory challenge, and represents the dose able of reducing of 30%, the Zymosan induced paw volume increase in comparison to control animals (animals treated with Zymosan but treated with only distilled water instead of the testing compound). The corresponding ED50, representing the dose able of reducing of 50% the zymosan induced paw volume increase, can be calculated for those cases where there is a linear dose-response relationship.
In both the experiments, for each test compound, at least three doses were used, with 10 animals per group. Compounds of the invention were tested at 10, 20 and 40 mg/Kg.

CFA-induced hyperalgesia = experiment: CFA model of chronic inflammatory pain; format: in vivo, rat
[3] = test system: mechanical hyperalgesia associated with STZ-induced diabetes; experiment: STZ-induced diabetes mechanical hyperalgesia (neuropathic pain); format: in vivo, rat
Experimental: Streptozotocin (STZ)-induced diabetes in the rat has been increasingly used as a model of painful diabetic neuropathy to assess the efficacies of potential analgesic agents (C. Courteix, Pain 1993, 53, 81-8). The compounds of the invention were tested for efficacy in reducing mechanical hyperalgesia associated with STZ-induced diabetes in the rat, according to the experimental model as described by the literature. Diabetes was produced with the injection of a single dose (75 mg/Kg i.p.) of STZ. In the following four weeks after the induction of diabetes the clinical symptoms (weight, body and skin temperature, motility and hyperglycemia) progressively developed by the animals, are strictly monitored. After four weeks, the scores obtained in diabetic rats to various pain stimuli (in particular mechanical stimuli) were grater than those in normal rats, indicating hyperalgesia. The hyperalgesia induced by diabetes was evaluated using the Randall-Selitto method as above described, and quantitated using the analgesimeter. Also in this case, the difference in the mechanical pain threshold between the basal value (generally 230-250 g) and the one tolerated by the animals treated with the drug, is defined as mechanical hyperalgesia. The compounds of the invention were administered i.p. (solution, Tween 80, 10% in saline) at different doses, and mechanical hyperalgesia was measured at the reported time, as maximum percent effect (MPE) which represents the difference (%) in pain threshold between the animals treated with the drug and the controls that received only the vehicle, compared with the weight borne by naïf non-diabetic controls. A 100% protection means that the diabetic animals treated with the compound can tolerate the same stimulus (weight) as the naïf non-diabetic animals. MPE higher than 100% means that the diabetic animal treated with the compound can tolerate stimuli (weight) higher than the control non-diabetic animals (hypoalgesia).

CC(=N)Nc1ccc2nc(-c3ccc4c(c3)OCO4)ncc2c1 [Example 1, N-[2-(1,3-benzodioxol-5-yl)quinazolin-6-yl]acetamidine]
IC50 [1]: 4.1 µM | IC50 (COX-2 expression): 4.6 µM | Inhibition (%) of IL-1 production (IL-1 production): 50% | ED50 ([2]; Rattus norvegicus, calculated from linear dose-response, read-out: Oedema Reduction ED50): 23.1 mg/kg | Oedema Reduction ED30 ([2]; 2 hours after challenge): 12.2 mg/kg | MPE 0.5 hrs. (CFA-induced hyperalgesia; 3 mg/Kg i.p.): 9% | MPE 0.5 hrs. (CFA-induced hyperalgesia; 10 mg/Kg i.p.): 28% | MPE 1.5 hrs. (CFA-induced hyperalgesia; 10 mg/Kg i.p.): 47% | MPE 3 hrs. (CFA-induced hyperalgesia; 10 mg/Kg i.p.): 15% | MPE 6 hrs. (CFA-induced hyperalgesia; 10 mg/Kg i.p.): 30% | MPE 0.5 hrs. (CFA-induced hyperalgesia; 30 mg/Kg i.p.): 418% | MPE 1.5 hrs. (CFA-induced hyperalgesia; 30 mg/Kg i.p.): 395% | MPE 3 hrs. (CFA-induced hyperalgesia; 30 mg/Kg i.p.): 384% | MPE 6 hrs. (CFA-induced hyperalgesia; 30 mg/Kg i.p.): 132% | MPE 24 hrs. (CFA-induced hyperalgesia; 30 mg/Kg i.p., 24 hrs.): 60% | MPE 0.5 hrs. ([3]; 3 mg/Kg i.p.): 15% | MPE 1.5 hrs. ([3]; 3 mg/Kg i.p.): 30% | MPE 3 hrs. ([3]; 3 mg/Kg i.p.): 45% | MPE 0.5 hrs. ([3]; 10 mg/Kg i.p.): 59% | MPE 1.5 hrs. ([3]; 10 mg/Kg i.p.): 34% | MPE 3 hrs. ([3]; 10 mg/Kg i.p.): 46% | MPE 0.5 hrs. ([3]; 30 mg/Kg i.p.): 110% | MPE 1.5 hrs. ([3]; 30 mg/Kg i.p.): 137% | MPE 3 hrs. ([3]; 30 mg/Kg i.p.): 101%
